Data: US20260191817A1, “FIBROBLAST MODULATORS IN STROMA-RICH TUMORS” (UNIVERSITEIT GENT, priority 2022, published 2026)
Entries after “also recorded” stand apart in the source; their conditions may differ.

How the values were obtained:
13B2 hTERT breast CAFs = assay: AFM spheroid stiffness, 13B2 hTERT breast CAFs; type: cell-based, human; conditions: for Young's modulus / spheroid stiffness: 1 μM, 48 h during spheroid formation
Source text: (§1) It is well established that an increased tumor and ECM stiffness is associated with a negative prognosis as it promotes tumor growth, progression, therapy resistance, immunosuppression and metastasis. Stiffness is chiefly regulated by the action of the CAFs in the TME. Stiffness modulation is, therefore, a fitting read-out of activity in a screen for CAF modulators. To assess stiffness modulation, the stiffness of spheroids of CAF cells treated with test compounds was interrogated using atomic force microscopy (AFM) indentation and compared with untreated cells. AFM measurement of the stiffness (elasticity) of cells and spheroids is a technique well-known to those skilled in the art. AFM measures the force required to create a given deflection, this read-out is also known as the Young's modulus. AFM is widely used in biology and cancer research: altered physicochemical properties of live cells serve as a read-out of altered complex physiological processes.
U-shaped, 384-well ULA plates (cat. no. MS-9384UZ, S-bio) were seeded with a suspension of cell-specific culture media with cells. Cells were allowed to form spheroids for an appropriate time under treatment conditions before use in experiments. Cell culture dishes (cat. no. 734-2814, VWR) were filled with collagen gel and placed at 37° C. for an appropriate time to allow solidification. For each condition, spheroids were pooled in one cell culture dish. The medium was removed (stored at 37° C.) to promote attachment of the bottom of each spheroid to the collagen gel. The cell culture dishes were incubated at 37° C. After the incubation period, the stored medium was carefully (prevent detachment of spheroids) added to the dishes.
Mechanical measurements were performed using an atomic force microscope. To indent the spheroids an in-house made colloidal probe was used. Force curves were collected using an appropriate setpoint and probe speed (depending on the stiffness of the spheroids). On each spheroid multiple force curves were collected. Collected curves were then processed using the JPK DP software. Young's modulus was extracted from the force curves. All experiments were performed in biological triplicate.
To generate 3D cultures mimicking the complexity and pathophysiology of in vivo tumors, spheroids were used (cfr. point 4). Spheroids are considered to better simulate cellular heterogeneity, nutrient and oxygen gradients, cell-cell interactions, cell-matrix interactions, gene expression profiles, stromal interactions, therapeutic responses, multicellular resistance, drug penetration and anti-apoptotic signaling.

CT5.3 hTERT colon CAFs = assay: AFM spheroid stiffness, CT5.3 hTERT colon CAFs; type: cell-based, human; conditions: 1 μM, 48 h
Source text: as §1
U-shaped, 384-well ULA plates (cat. no. MS-9384UZ, S-bio) were seeded with a suspension of cell-specific culture media with cells. Cells were allowed to form spheroids for an appropriate time under treatment conditions before use in experiments. Cell culture dishes (cat. no. 734-2814, VWR) were filled with collagen gel and placed at 37° C. for an appropriate time to allow solidification. […]

[1] = test system: 13B2 hTERT, CT5.3 hTERT, HCA2 hTERT, MCF-7/6 and 4T1-Luc cells; assay: 2D CellTiter-Glo Cell Viability Assay; type: cell-based; conditions: 48 h of treatment
Description: The half maximal inhibitory concentration (IC50) of A1 was evaluated using a CellTiter-Glo® 2.0 Cell Viability Assay (cat. no. G9243, Promega) and a CellTiter-Glo® 3D Cell Viability Assay (cat. no. G9681, Promega). 13B2 hTERT cells (2D: 2×10^5, 3D: 8×10^4) were plated in each well of a Nunc™ MicroWell™ 96-Well, Nunclon Delta-Treated, Flat-Bottom Microplate (cat. no. 167008, Thermo Fisher Scientific) for 2D experiments or 96-well ULA plate (cat. no. MS-9096UZ, S-bio) in a volume of 90 μL/well. A1 was serially diluted in the appropriate medium to 10× the final concentrations. For each treatment condition, 10 μL was added to 3 replicate wells (final concentrations ranging from 1-100 μM) and plates were incubated for 48 h.
The CellTiter-Glo Cell Viability Assay was performed according to manufacturer's instructions. Briefly, the plates and the CellTiter-Glo® Reagent were equilibrated to room temperature (RT). The CellTiter-Glo® Reagent was added to each well in a 1:1 (v/v) ratio. For 2D experiments, cell lysis was induced by placing the plates on an orbital shaker for 2 min, followed by stabilization of the luminescent signal for 10 min. […] Afterwards, the luminescence was measured using a Synergy™ HTX Multi-Mode Microplate Reader (BioTek). The IC50 value was determined using the Graphpad Prism software. […]

Structure (SMILES) | Young's modulus / spheroid stiffness, concentration range (13B2 hTERT breast CAFs; 30 nM-3 μM, 48 h) | Young's modulus / spheroid stiffness (13B2 hTERT breast CAFs) | spheroid stiffness (CT5.3 hTERT colon CAFs) | IC50 value, metabolic activity of 2D cultures [1]
COc1cc(C(=O)/C=C/c2ccc(F)cc2)cc(OC)c1OC [Compound A1, 3-(4-Fluorophenyl)-1-(3,4,5-trimethoxyphenyl)prop2-en-1-one] | dose-response behavior | significant decrease; also recorded: active | decreased | high micromolar
COc1cc2oc(-c3ccc(F)cc3)cc(=O)c2c(OC)c1OC [Compound B1, 2-(4-Fluorophenyl)-5,6,7-trimethoxy-4H-chromen-4-one] | – | significant decrease; also recorded: active | decreased | high micromolar
